Test results: ChEMBL document CHEMBL1124325, “Interactions of thiol-containing androgens with human placental aromatase” (J Med Chem, 1989)

Tests used:
Aromatase [1] = molecular target: T1, Aromatase (Homo sapiens, UniProt P11511); assay: Dithiothreitol ([…]) reactivation of human placental aromatase following 1.0 uM inactivation for 5 minutes; details: read-out: Activity remaning
T1 sequence (P11511 whole entry): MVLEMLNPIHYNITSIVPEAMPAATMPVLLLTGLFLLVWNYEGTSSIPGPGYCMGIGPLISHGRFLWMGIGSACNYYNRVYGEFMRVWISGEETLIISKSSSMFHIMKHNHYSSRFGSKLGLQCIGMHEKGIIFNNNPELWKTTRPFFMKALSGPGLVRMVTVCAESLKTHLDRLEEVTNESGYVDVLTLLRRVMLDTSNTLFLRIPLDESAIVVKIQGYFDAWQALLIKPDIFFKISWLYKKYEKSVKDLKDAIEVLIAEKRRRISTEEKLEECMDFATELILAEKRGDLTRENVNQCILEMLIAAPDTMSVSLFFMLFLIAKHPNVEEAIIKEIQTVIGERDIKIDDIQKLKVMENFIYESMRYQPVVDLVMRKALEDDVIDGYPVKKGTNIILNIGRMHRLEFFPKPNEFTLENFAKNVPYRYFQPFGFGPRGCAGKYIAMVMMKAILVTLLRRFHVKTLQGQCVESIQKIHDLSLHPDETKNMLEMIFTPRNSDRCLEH

Aromatase [2] = molecular target: T1, Aromatase; assay: Catalytic constant (Kcat) for reversible enzyme-ligand complex formation with human placental aromatase (PL2)
Aromatase [3] = molecular target: T1, Aromatase; assay: Binding affinity for formation of reversible enzyme-ligand complexes with human placental aromatase (PL2)
Aromatase [4] = molecular target: T1, Aromatase; assay: Maximum absorbance for formation of reversible-enzyme-ligand complexes with human placental aromatase (PL1)
Aromatase [5] = molecular target: T1, Aromatase; assay: Dithiothreitol ([…]) reactivation of human placental aromatase following 1.0 uM inactivation for 10 minutes; details: read-out: Activity remaning
Aromatase [6] = molecular target: T1, Aromatase; assay: Binding affinity(KI) for formation of reversible enzyme-ligand complex with human placental aromatase (PL2)
Aromatase [7] = molecular target: T1, Aromatase; assay: Binding affinity constant for formation of reversible enzyme-ligand complex with human placental aromatase (PL1); details: read-out: Ks

## C[C@]12CCC(=O)C(O)=C1CCC1C2CC[C@]2(C)C(=O)CCC12.OC(CS)C(O)CS (stereo not given in full)
Aromatase [1]
  activity at 1 µM: 41%

## C[C@]12CCC3C(CCC4=CC(=O)CC[C@@]43CS)C1CCC2=O.OC(CS)C(O)CS (stereo not given in full)
Aromatase [1]
  activity at 1 µM: 59%

## C[C@]12CCC3C(CCC4=CC(=O)CC[C@@]43S)C1CCC2=O.OC(CS)C(O)CS (stereo not given in full)
Aromatase [1]
  activity at 1 µM: 48%

## C[C@]12CCC3C(CCC4=CC(=O)CC[C@@]43CS)C1CCC2=O (stereo not given in full)
Aromatase [2]
  k cat: 0.0025
Aromatase [1]
  activity at 1 µM: 60%
Aromatase [3]
  Ki: 47 nM
Aromatase [4]
  Activity: 0.179 Amax nM-1

## C#CC[C@]12CCC(=O)C=C1CCC1C2CC[C@]2(C)C(=O)CCC12.OC(CS)C(O)CS (stereo not given in full)
Aromatase [5]
  activity at 1 µM: 63%

## C[C@]12C[C@@H](S)C(=O)C=C1CCC1C2CC[C@]2(C)C(=O)CCC12.OC(CS)C(O)CS (stereo not given in full)
Aromatase [5]
  activity at 1 µM: 74%

## C[C@]12C[C@@H](S)C(=O)C=C1CCC1C2CC[C@]2(C)C(=O)CCC12 (stereo not given in full)
Aromatase [2]
  k cat: 0.002
Aromatase [6]
  Ki: 3100 nM
Aromatase [4]
  Activity: 0.169 Amax nM-1
Aromatase [5]
  activity at 1 µM: 75%
Aromatase [7]
  Kd: 602 nM

## C[C@]12CCC3C(CCC4=CC(=O)CC[C@@]43S)C1CCC2=O (stereo not given in full)
Aromatase [2]
  k cat: 0.0043
Aromatase [1]
  activity at 1 µM: 50%
Aromatase [6]
  Ki: 28 nM
Aromatase [4]
  Activity: 0.187 Amax nM-1
Aromatase [7]
  Kd: 144 nM

## C[C@]12CCC3C(CCC4=CC(=O)CC[C@@]43S)C1CC[C@@H]2O (stereo not given in full)
Aromatase [2]
  k cat: 0.004
Aromatase [6]
  Ki: 100 nM
Aromatase [4]
  Activity: 0.167 Amax nM-1
Aromatase [7]
  Kd: 785 nM

## CC12CCC3C(CC=C4CC(=O)CCC43CO)C1CCC2=O (stereo not given)
Aromatase [4]
  Activity: 0.125 Amax nM-1
Aromatase [7]
  Kd: 368 nM

## C[C@]12CCC(=O)C=C1CC[C@@H]1[C@@H]2CC[C@]2(C)C(=O)CC[C@@H]12 [ANDROSTENEDIONE]
Aromatase [4]
  Activity: 0.177 Amax nM-1
Aromatase [7]
  Kd: 105 nM

## OC(CS)C(O)CS (stereo not drawn) [DL-DITHIOTHREITOL]
Aromatase [1]
  activity at 1 µM: 97%
Aromatase [5]
  activity at 1 µM: 84%

## C[C@]12CCC(=O)C(O)=C1CC[C@@H]1[C@@H]2CC[C@]2(C)C(=O)CC[C@@H]12 [FORMESTANE]
Aromatase [2]
  k cat: 0.008 *10e-3
Aromatase [1]
  activity at 1 µM: 43%
Aromatase [6]
  Ki: 542 nM
Aromatase [4]
  Activity: 0.162 Amax nM-1
Aromatase [7]
  Kd: 324 nM

## C#CC[C@]12CCC(=O)C=C1CC[C@@H]1[C@@H]2CC[C@]2(C)C(=O)CC[C@@H]12 [PLOMESTANE]
Aromatase [2]
  k cat: 0.0007
Aromatase [6]
  Ki: 6.2 nM
Aromatase [4]
  Activity: 0.191 Amax nM-1
Aromatase [5]
  activity at 1 µM: 65%
Aromatase [7]
  Kd: 213 nM

## C[C@]12CC[C@H]3[C@@H](CCC4=CC(=O)CC[C@@]43C)[C@@H]1CC[C@@H]2O [TESTOSTERONE]
Aromatase [4]
  Activity: 0.166 Amax nM-1
